Reference: patent US11306063B2, “Heterocyclic naphthoquinones derivatives for use in the treatment of cancers including Cushing disease” (Commissariat a l'Energie Atomique et aux Energies …, priority 2016, dated 2022)
pEC50, pIC50: −log10 of the molar value. Like-named read-outs stand apart in the source and are kept apart here.

What was measured:
[1] = molecular target: T1, USP2^CD (purified catalytic domain of USP2) (Homo sapiens, UniProt O75604); assay: Inhibition of purified USP2^CD enzymatic activity (Ub-AMC or Ub-Rho substrate); type: biochemical; conditions: for inhibition at 0.01 µM: 0.01 μM compound; for inhibition at 0.05 µM: 0.05 μM compound; for inhibition at 0.1 µM: 0.1 μM compound; for inhibition at 0.5 µM: 0.5 μM compound; for inhibition at 1 µM: 1 μM compound; for inhibition at 5 µM: 5 μM compound; for inhibition at 10 µM: 10 μM compound; for inhibition at 25 µM: 25 μM compound; for inhibition at 50 µM: 50 μM compound; for inhibition of USP2^CD activity (IC50 range, FIG. 1): Ub-Rho substrate (0.1 μM)
T1 construct: The purified catalytic domain of USP2 (USP2^CD, in-house purified); His; made in house; host or cells: E. coli BL21 Gold
T1 sequence (O75604 267-599 limits assumed): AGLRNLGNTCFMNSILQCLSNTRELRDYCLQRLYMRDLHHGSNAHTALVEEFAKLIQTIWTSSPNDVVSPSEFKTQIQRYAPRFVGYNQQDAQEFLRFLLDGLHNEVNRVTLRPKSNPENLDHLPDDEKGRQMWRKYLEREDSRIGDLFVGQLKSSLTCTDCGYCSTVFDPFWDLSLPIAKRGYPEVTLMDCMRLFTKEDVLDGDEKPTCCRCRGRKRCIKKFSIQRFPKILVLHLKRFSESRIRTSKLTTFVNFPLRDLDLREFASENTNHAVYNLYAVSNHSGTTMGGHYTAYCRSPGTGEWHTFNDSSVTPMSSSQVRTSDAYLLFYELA
Method in brief: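 His-tagged catalytic domain expressed in E. coli and Ni/gel-filtration purified; assayed in 50 mM HEPES pH 7.6 or 40 mM Tris pH 7.4 with 1 mM DTT. Compound added just before Ub-AMC or Ub-Rho substrate; fluorescence from hydrolysis followed over 20 or 30 min, median of duplicates.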

MESSA cells = assay: Cytotoxicity assay (PrestoBlue cell viability), MESSA; type: cell-based; conditions: Homo sapiens, MES-SA; 48 hours treatment; concentration inducing 50% cell mortality
Protocol: (§1) Messa, Messa DX5, HCT116, HEK-293, PC-3, LNCaP, HCC827 and H1975 cell lines are issued from the American Type Culture Collection (ATCC).
(§2) Messa, Messa DX5 and HCT116 were maintained in McCoy's supplemented with 10% fetal bovine serum, and 1% penicillin/streptomycin. PC-3, LNCaP cells were maintained in RPMI medium supplemented with 10% fetal bovine serum, and 1% penicilin/streptomycin and in the case of Messa DX5: 500 nM Doxorubicin was added to maintain selection pressure. HEK293 were maintained in DMEM medium supplemented with 10% fetal bovine serum, and 1% penicillin/streptomycin. Cells were maintained at 37° C. with 5% CO2, 95% air, and humid atmosphere. In the case of hormonal dependent LNCaP cells, 2 μM DiHydroTestosterone (DHT) was added or not—depending on the type of biological assay—for the same incubation period as compounds.
(§3) For cytotoxicity assays, cells were seeded in 96-well microplates 24 hours before the addition of increasing concentrations of each compound in the culture medium. Cell viability was analyzed 48 hours following addition of each compound through the monitoring of mitochondrial […] activity using PrestoBlue® Cell Viability Reagent (Invitrogen; #A-13261). Paclitaxel was used as a control which is cytotoxic on various cancerous cells although not on chemoresistant MESSA DX5 lineage.

MESSA DX5 cells = assay: Cytotoxicity assay (PrestoBlue cell viability), MESSA DX5; type: cell-based, human; conditions: for pEC50: Homo sapiens, MES-SA/Dx5, 48 hours treatment, chemoresistant line
Protocol: as §1, §2, §3

HEK293 cells = assay: Cytotoxicity assay (PrestoBlue cell viability), HEK293; type: cell-based; conditions: Homo sapiens, 48 hours treatment
Protocol: as §1, §2, §3

LNCaP cells = assay: Cytotoxicity assay (PrestoBlue cell viability), LNCaP; type: cell-based; conditions: Homo sapiens, 48 hours treatment
Protocol: as §1, §2, §3

[2] = tested on: PC-3 prostatic cancer cells; assay: Cell growth inhibition and cell death induction (Incucyte), PC-3; type: cell-based, human; conditions: 48 hours, FIG. 12C,D
From the text: (§4) FIG. 12: The cell growth inhibition and cell death induction of non-small cell lung cancers (NSCLC), HCC827 cells and derivative Gefitinib-resistant clone H1975 (FIG. 12 A,B) and of PC-3 (FIG. 12 C,D) and LnCAP (FIG. 12 E,F) were monitored using Incucyte microscope. Histogram represent in A,C,E: the final cell area relative to the total well area in (%) and in B,D,F: the fluorescent area in μm2. Error bars indicate standard deviation between 6 technical replicates.
(§5) The cell growth inhibition and cell death induction of non-small cell lung cancers (NSCLC), HCC827 cells and derivative Gefitinib-resistant clone H1975 were monitored during a period of 72 hours using Incucyte microscope and dedicated programs allowing to monitor cell confluency (i.e.: cell surface area relative to total well surface) and cell death induction by adding Propidium Iodide (PI) at 1 μg/ml (Sigma Aldrich #P4864) in the culture medium.

[3] = tested on: LNCaP prostatic cancer cells; assay: Cell growth inhibition and cell death induction (Incucyte), LNCaP; type: cell-based, human; conditions: 48 hours, FIG. 12E,F
From the text: as §4, §5

[4] = Ub-AMC substrate at 1 μM, Table 2b, read-out: IC50 USP2 CD

Compound `O=C1c2ccccc2C(=O)c2nc(CS(=O)(=O)c3ccccc3F)c(CS(=O)(=O)c3ccccc3F)nc21` [OVM24] has an inhibition at 0.01 µM ([1]; Table 1c) of -29%, an inhibition at 0.05 µM ([1]; Table 1c) of 2% and an inhibition at 0.1 µM ([1]; Table 1c) of 9%. It also gave an inhibition at 0.5 µM ([1]; Table 1c) of 10%, an inhibition at 1 µM ([1]; Table 1b) of 54% and an inhibition at 1 µM ([1]; Table 1c) of 12%. For the same compound, the inhibition at 5 µM ([1]; Table 1b) was 68%, the inhibition at 5 µM ([1]; Table 1c) was 20% and the inhibition at 10 µM ([1]; Table 1c) was 17%. It also gave an inhibition at 25 µM ([1]; Table 1b) of 86%, an inhibition at 50 µM ([1]; Table 1b) of 96% and a pIC50 [1, 4] of under 5.00. The pEC50 (MESSA cells) was 6.15, the pEC50 (MESSA DX5 cells) was 6.10 and the pEC50 (HEK293 cells) was 5.60. For the same compound, the pEC50 (LNCaP cells) was 5.89, the “cell growth inhibition and cell death induction, PC-3” value [2] was “inhibit cell growth and induce cell death in a dose dependent manner” and the “cell growth inhibition and cell death induction, LNCaP” value [3] was “inhibit cell growth and induce cell death in a dose dependent manner”.
`CCCCS(=O)(=O)Cc1nc2c(nc1CS(=O)(=O)CCCC)C(=O)c1ccccc1C2=O` [PCR6236] was tested, and the pIC50 [1] was 5.68, the “inhibition of USP2^CD activity (IC50 range, FIG. 1)” value [1] was “in the micromolar range” and the pEC50 (MESSA cells) was 5.70. The “sensitivity of chemo-resistant MESSA-DX5 compared with nonresistant MESSA cell line” value (MESSA DX5 cells) was “equally sensitive”, the pEC50 (MESSA DX5 cells) was 5.46 and the pEC50 (HEK293 cells) was 5.85. For the same compound, the pEC50 (LNCaP cells) was 5.70, the “cell growth inhibition and cell death induction, PC-3” value [2] was “inhibit cell growth and induce cell death in a dose dependent manner” and the “cell growth inhibition and cell death induction, LNCaP” value [3] was “inhibit cell growth and induce cell death in a dose dependent manner”.
For `CCCCS(=O)(=O)Cc1nc2c(o1)C(=O)c1ccccc1C2=O` [PCR9301], the inhibition at 1 µM ([1]; Table 3a) was 77%, the inhibition at 5 µM ([1]; Table 3a) was 99% and the inhibition at 25 µM ([1]; Table 3a) was 100%. The inhibition at 50 µM ([1]; Table 3a) was 100%, the “inhibition of USP2^CD activity (IC50 range, FIG. 1)” value [1] was “in the micromolar range” and the pIC50 ([1]; Ub-Rho substrate, Table 3b, read-out: IC50 against purified USP2^CD) was 6.40. For the same compound, the pEC50 (MESSA cells) was 5.89, the “sensitivity of chemo-resistant MESSA-DX5 compared with nonresistant MESSA cell line” value (MESSA DX5 cells) was “equally sensitive” and the pEC50 (MESSA DX5 cells) was 5.74. It also gave a pEC50 (LNCaP cells) of 5.89.
With `CCCS(=O)(=O)Cc1nc2c(nc1CS(=O)(=O)CCC)C(=O)c1ccccc1C2=O` [VIN6074] the inhibition at 0.01 µM ([1]; Table 1c) was 1%, the inhibition at 0.05 µM ([1]; Table 1c) was -13% and the inhibition at 0.1 µM ([1]; Table 1c) was -23%. It also gave an inhibition at 0.5 µM ([1]; Table 1c) of 23%, an inhibition at 1 µM ([1]; Table 1b) of 38% and an inhibition at 1 µM ([1]; Table 1c) of 17%. The inhibition at 5 µM ([1]; Table 1b) was 81%, the inhibition at 5 µM ([1]; Table 1c) was 70% and the inhibition at 10 µM ([1]; Table 1c) was 77%. For the same compound, the inhibition at 25 µM ([1]; Table 1b) was 98%, the inhibition at 50 µM ([1]; Table 1b) was 101% and the pIC50 [1, 4] was 5.52. It also gave a pIC50 ([1]; Ub-Rhodamine substrate at 0.1 μM, Table 2c, read-out: IC50 USP2 CD) of 6.30, a pEC50 (MESSA cells) of 5.57 and a pEC50 (MESSA DX5 cells) of 5.46. The pEC50 (HEK293 cells) was 5.82, the pEC50 (LNCaP cells) was 5.72 and the “cell growth inhibition and cell death induction, PC-3” value [2] was “inhibit cell growth and induce cell death in a dose dependent manner”. For the same compound, the “cell growth inhibition and cell death induction, LNCaP” value [3] was “inhibit cell growth and induce cell death in a dose dependent manner”.
